Measurements reported in ChEMBL document CHEMBL1759917, “Synthesis of purin-2-yl and purin-6-yl-aminoglucitols as C-nucleosidic ATP mimics and biological evaluation as FGFR3 inhibitors” (Eur J Med Chem, 2011).
Calls of active or inactive are those of the source. The calls are words filed in the database; no cut-off is given here.

Biological target: Fibroblast growth factor receptor 3 (Homo sapiens) (UniProt P22607)
Experiment: Inhibition of FGFR3 at 50 uM

Fibroblast growth factor receptor 3 (Homo sapiens), sequence (P22607 23-806 limits assumed): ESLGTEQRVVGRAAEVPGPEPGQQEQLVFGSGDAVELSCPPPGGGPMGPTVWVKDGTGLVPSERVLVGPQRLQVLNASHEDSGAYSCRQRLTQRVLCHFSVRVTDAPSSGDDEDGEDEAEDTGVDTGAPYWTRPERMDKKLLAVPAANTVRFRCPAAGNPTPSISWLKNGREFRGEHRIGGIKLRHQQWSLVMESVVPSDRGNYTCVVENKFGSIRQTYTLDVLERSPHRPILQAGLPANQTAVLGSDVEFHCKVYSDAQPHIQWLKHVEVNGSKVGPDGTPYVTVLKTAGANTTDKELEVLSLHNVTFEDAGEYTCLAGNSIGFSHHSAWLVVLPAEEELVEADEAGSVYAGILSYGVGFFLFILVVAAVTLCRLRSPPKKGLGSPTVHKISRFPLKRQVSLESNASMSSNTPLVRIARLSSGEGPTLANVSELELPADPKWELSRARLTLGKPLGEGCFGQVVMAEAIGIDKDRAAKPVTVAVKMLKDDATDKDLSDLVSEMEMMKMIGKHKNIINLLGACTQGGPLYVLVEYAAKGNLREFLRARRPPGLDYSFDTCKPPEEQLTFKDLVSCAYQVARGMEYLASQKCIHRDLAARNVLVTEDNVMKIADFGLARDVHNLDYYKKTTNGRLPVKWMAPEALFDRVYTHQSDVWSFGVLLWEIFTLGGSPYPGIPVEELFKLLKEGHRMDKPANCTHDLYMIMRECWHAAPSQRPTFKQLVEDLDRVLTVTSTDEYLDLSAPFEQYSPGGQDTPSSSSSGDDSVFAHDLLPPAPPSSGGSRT

inhibition call (active / not active) | SMILES
Active | Ic1nc(NCCN2CCOCC2)c2nc[nH]c2n1
inactive | Nc1nc(N)c2ncn(C[C@@H]3O[C@H](CO)[C@@H](O)[C@H]3O)c2n1
inactive | CCN(CC)CCCNc1nc(N)c2ncn(C[C@@H]3O[C@H](CO)[C@@H](O)[C@H]3O)c2n1
Active | OC[C@H]1O[C@@H](CNc2nc(NCCc3ccccc3)c3nc[nH]c3n2)[C@@H](O)[C@@H]1O
inactive | CCN(CC)CCCNc1nc(Nc2ccccc2)c2ncn(C[C@@H]3O[C@H](CO)[C@@H](O)[C@H]3O)c2n1
Active | OC[C@H]1O[C@@H](CNc2nc(I)nc3[nH]cnc23)[C@@H](OCc2ccccc2)[C@@H]1OCc1ccccc1
Active | OC[C@H]1O[C@@H](CNc2nc(NCCN3CCOCC3)c3nc[nH]c3n2)[C@@H](O)[C@@H]1O
Active | OC[C@H]1O[C@@H](CNc2nc(NCCN3CCOCC3)nc3[nH]cnc23)[C@@H](O)[C@@H]1O
Active | OC[C@H]1O[C@@H](CNc2nc(NCCc3ccccc3)nc3[nH]cnc23)[C@@H](O)[C@@H]1O
inactive | Nc1ncc2ncn(C[C@@H]3O[C@H](CO)[C@@H](O)[C@H]3O)c2n1
inactive | Nc1nc(Nc2ccccc2)c2ncn(C[C@@H]3O[C@H](CO)[C@@H](O)[C@H]3O)c2n1
Active | COc1ccc(CCNc2nc(NC[C@@H]3O[C@H](CO)[C@@H](O)[C@@H]3O)nc3[nH]cnc23)cc1OC
Active | COc1ccc(CCNc2nc(NC[C@@H]3O[C@H](CO)[C@@H](O)[C@@H]3O)c3nc[nH]c3n2)cc1OC
Active | OC[C@H]1O[C@@H](CNc2nc(NCCc3ccccc3)c3nc[nH]c3n2)[C@@H](OCc2ccccc2)[C@@H]1OCc1ccccc1
Active | OC[C@H]1O[C@@H](CNc2nc(NCCc3ccccc3)nc3[nH]cnc23)[C@@H](OCc2ccccc2)[C@@H]1OCc1ccccc1
inactive | Nc1ncnc2c1ncn2C[C@@H]1O[C@H](CO)[C@@H](O)[C@H]1O
